Results taken from patent publication US12673944B2, “Compounds having inhibitory activity against glucosylceramide synthase or pharmaceutically acceptable salt thereof, processes for preparing the same, and pharmaceutical compositions comprising the same” (YUHAN CORPORATION, priority 2019, dated 2026).

Key:
[1] = biological target: T1, glucosylceramide synthase (GCS) (Homo sapiens, UniProt Q16739); assay: GCS enzyme inhibition assay (A549 cell lysate, NBD C6-ceramide, HPLC fluorescence); type: biochemical; conditions: inhibitory activity against GCS, 37° C., 90 minutes
T1 construct: The obtained supernatant was used; host or cells: A549 cells (lysate supernatant after sonication)
T1 sequence (Q16739 1-394): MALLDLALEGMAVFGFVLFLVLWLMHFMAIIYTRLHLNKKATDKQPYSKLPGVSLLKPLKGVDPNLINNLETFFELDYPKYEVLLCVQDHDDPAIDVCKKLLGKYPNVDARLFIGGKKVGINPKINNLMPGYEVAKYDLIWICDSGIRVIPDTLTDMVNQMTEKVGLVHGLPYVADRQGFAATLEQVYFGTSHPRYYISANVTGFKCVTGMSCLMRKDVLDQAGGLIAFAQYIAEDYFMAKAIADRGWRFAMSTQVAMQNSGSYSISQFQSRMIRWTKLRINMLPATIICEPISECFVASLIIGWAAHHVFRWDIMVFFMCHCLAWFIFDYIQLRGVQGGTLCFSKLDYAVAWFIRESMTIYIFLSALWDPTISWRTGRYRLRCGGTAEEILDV
Outline: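 A549 cell lysate (50 mM HEPES pH 7.3) served as GCS source; reactions ran 90 min at 37° C, were stopped with chloroform/methanol and lipids extracted. Activity taken as GlcCer/(Cer+GlcCer) peak area, normalised between DMSO and ibiglustat controls.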

[2] = tested on: GM1 production in Jurkat cells; assay: cells; type: cell-based; conditions: Homo sapiens, Jurkat, 72 h

Compound	IC50 [1] [nM]	IC50 [2] [nM]
CC1(C)COc2cc(-c3ccc(OCC(F)(F)F)nc3)ccc2C1NC(=O)O[C@@H]1CN2CCC1CC2 (stereo partly drawn) [Example 144, (S)-quinuclidin-3-yl (3,3-dimethyl-7-(6-(2,2,2-trifluoroethoxy)pyridin-3-yl)chroman-4-yl)carbamate]	0.17	1.2
COc1ccc2cc(-c3ccc4c(c3)OCC(C)(C)C4NC(=O)O[C@@H]3CN4CCC3CC4)ccc2c1 (stereo partly drawn) [Example 145, (S)-quinuclidin-3-yl (7-(6-methoxynaphthalen-2-yl)-3,3-dimethylchroman-4-yl)carbamate]	0.69	0.08
CCOc1ccc(-c2ccc3c(c2)OCC(C)(C)C3NC(=O)O[C@@H]2CN3CCC2CC3)cc1C(F)(F)F (stereo partly drawn) [Example 146, (S)-quinuclidin-3-yl (7-(4-ethoxy-3-(trifluoromethyl)phenyl)-3,3-dimethylchroman-4-yl)carbamate]	0.98	2.35
CC1(C)COc2cc(-c3coc4ccccc34)ccc2C1NC(=O)O[C@@H]1CN2CCC1CC2 (stereo partly drawn) [Example 147, (S)-quinuclidin-3-yl (7-(benzofuran-3-yl)-3,3-dimethylchroman-4-yl)carbamate]	0.4	1
CN(C)c1cccc(-c2ccc3c(c2)OCC(C)(C)C3NC(=O)O[C@@H]2CN3CCC2CC3)c1 (stereo partly drawn) [Example 148, (S)-quinuclidin-3-yl (7-(3-(dimethylamino)phenyl)-3,3-dimethylchroman-4-yl)carbamate]	0.74	0.03
CC1(C)COc2cc(-c3ccc4c(c3)OC(F)(F)O4)ccc2C1NC(=O)O[C@@H]1CN2CCC1CC2 (stereo partly drawn) [Example 149, (S)-quinuclidin-3-yl (7-(2,2-difluorobenzo[d][1,3]dioxol-5-yl)-3,3-dimethylchroman-4-yl)carbamate]	0.41	0.03
CC1(C)COc2cc(-c3cc(Cl)ccc3Cl)ccc2C1NC(=O)O[C@@H]1CN2CCC1CC2 (stereo partly drawn) [Example 150, (S)-quinuclidin-3-yl (7-(2,5-dichlorophenyl)-3,3-dimethylchroman-4-yl)carbamate]	0.72	0.4
CC(C)c1cccc(-c2ccc3c(c2)OCC(C)(C)C3NC(=O)O[C@@H]2CN3CCC2CC3)c1 (stereo partly drawn) [Example 151, (S)-quinuclidin-3-yl (7-(3-isopropylphenyl)-3,3-dimethylchroman-4-yl)carbamate]	0.53	0.31
CC(C)(C)c1cccc(-c2ccc3c(c2)OCC(C)(C)C3NC(=O)O[C@@H]2CN3CCC2CC3)c1 (stereo partly drawn) [Example 152, (S)-quinuclidin-3-yl (7-(3-(tert-butyl)phenyl)-3,3-dimethylchroman-4-yl)carbamate]	0.91	0.22
COc1ccc(Cl)c(-c2ccc3c(c2)OCC(C)(C)C3NC(=O)O[C@@H]2CN3CCC2CC3)c1 (stereo partly drawn) [Example 153, (S)-quinuclidin-3-yl (7-(2-chloro-5-methoxyphenyl)-3,3-dimethylchroman-4-yl)carbamate]	0.48	0.06
CC1(C)COc2cc(-c3cccc(-c4ccccc4)c3)ccc2C1NC(=O)O[C@@H]1CN2CCC1CC2 (stereo partly drawn) [Example 154, (S)-quinuclidin-3-yl (7-([1,1′-biphenyl]-3-yl)-3,3-dimethylchroman-4-yl)carbamate]	0.74	0.41
CC1(C)COc2cc(-c3cncc4ccccc34)ccc2C1NC(=O)O[C@@H]1CN2CCC1CC2 (stereo partly drawn) [Example 155, (S)-quinuclidin-3-yl (7-(isoquinolin-4-yl)-3,3-dimethylchroman-4-yl)carbamate]	0.6	0.77
CC1(C)COc2cc(-c3ccccc3F)ccc2C1NC(=O)O[C@@H]1CN2CCC1CC2 (stereo partly drawn) [Example 156, (S)-quinuclidin-3-yl (7-(2-fluorophenyl)-3,3-dimethylchroman-4-yl)carbamate]	0.29	0.27
CC1(C)COc2cc(-c3ccccc3OC(F)(F)F)ccc2C1NC(=O)O[C@@H]1CN2CCC1CC2 (stereo partly drawn) [Example 157, (S)-quinuclidin-3-yl (3,3-dimethyl-7-(2-(trifluoromethoxy)phenyl)chroman-4-yl)carbamate]	0.48	0.12
CCOc1cccc(-c2ccc3c(c2)OCC(C)(C)C3NC(=O)O[C@@H]2CN3CCC2CC3)c1 (stereo partly drawn) [Example 158, (S)-quinuclidin-3-yl (7-(3-ethoxyphenyl)-3,3-dimethylchroman-4-yl)carbamate]	0.42	1.5
Cn1ncc2c(-c3ccc4c(c3)OCC(C)(C)C4NC(=O)O[C@@H]3CN4CCC3CC4)cccc21 (stereo partly drawn) [Example 159, (S)-quinuclidin-3-yl (3,3-dimethyl-7-(1-methyl-1H-indazol-4-yl)chroman-4-yl)carbamate]	0.57	0.55

Compound	IC50 [1] [nM]	IC50 [2] [nM]
CC1(C)COc2cc(-c3cccc4ccncc34)ccc2C1NC(=O)O[C@@H]1CN2CCC1CC2 (stereo partly drawn) [Example 160, (S)-quinuclidin-3-yl (7-(isoquinolin-8-yl)-3,3-dimethylchroman-4-yl)carbamate]	0.52	0.54
CC1(C)COc2cc(-c3ccc(C4CC4)cc3)ccc2C1NC(=O)O[C@@H]1CN2CCC1CC2 (stereo partly drawn) [Example 161, (S)-quinuclidin-3-yl (7-(4-cyclopropylphenyl)-3,3-dimethylchroman-4-yl)carbamate]	0.38	0.18
COc1ccccc1-c1ccc2c(c1)OCC(C)(C)C2NC(=O)O[C@@H]1CN2CCC1CC2 (stereo partly drawn) [Example 162, (S)-quinuclidin-3-yl (7-(2-methoxyphenyl)-3,3-dimethylchroman-4-yl)carbamate]	0.52	0.02
CC1(C)COc2cc(-c3ccc4c(c3)CCCO4)ccc2C1NC(=O)O[C@@H]1CN2CCC1CC2 (stereo partly drawn) [Example 163, (S)-quinuclidin-3-yl (3′,3′-dimethyl-[6,7′-bichroman]-4′-yl)carbamate]	0.59	0.5
CC1(C)COc2cc(-c3cc(Cl)cc(C(F)(F)F)c3)ccc2C1NC(=O)O[C@@H]1CN2CCC1CC2 (stereo partly drawn) [Example 164, (S)-quinuclidin-3-yl (7-(3-chloro-5-(trifluoromethyl)phenyl)-3,3-dimethylchroman-4-yl)carbamate]	1.59	3.22
CC1(C)COc2cc(-c3cccc4cccnc34)ccc2C1NC(=O)O[C@@H]1CN2CCC1CC2 (stereo partly drawn) [Example 165, (S)-quinuclidin-3-yl (3,3-dimethyl-7-(quinolin-8-yl)chroman-4-yl)carbamate]	0.82	0.66
COc1cccc(-c2ccc3c(c2)OCC(C)(C)C3NC(=O)O[C@@H]2CN3CCC2CC3)c1 (stereo partly drawn) [Example 166, (S)-quinuclidin-3-yl (7-(3-methoxyphenyl)-3,3-dimethylchroman-4-yl)carbamate]	0.31	0.07
CC(C)Oc1ccc(-c2ccc3c(c2)OCC(C)(C)C3NC(=O)O[C@@H]2CN3CCC2CC3)cc1Cl (stereo partly drawn) [Example 167, (S)-quinuclidin-3-yl (7-(3-chloro-4-isopropoxyphenyl)-3,3-dimethylchroman-4-yl)carbamate]	0.71	3.28
COc1cccc(OC)c1-c1ccc2c(c1)OCC(C)(C)C2NC(=O)O[C@@H]1CN2CCC1CC2 (stereo partly drawn) [Example 168, (S)-quinuclidin-3-yl (7-(2,6-dimethoxyphenyl)-3,3-dimethylchroman-4-yl)carbamate]	1.4	2.05
CC1(C)COc2cc(-c3ccccc3Cl)ccc2C1NC(=O)O[C@@H]1CN2CCC1CC2 (stereo partly drawn) [Example 169, (S)-quinuclidin-3-yl (7-(2-chlorophenyl)-3,3-dimethylchroman-4-yl)carbamate]	0.37	0.25
CC1(C)COc2cc(-c3cccc(C#N)c3)ccc2C1NC(=O)O[C@@H]1CN2CCC1CC2 (stereo partly drawn) [Example 170, (S)-quinuclidin-3-yl (7-(3-cyanophenyl)-3,3-dimethylchroman-4-yl)carbamate]	0.42	5.83
CN(C)c1cc(-c2ccc3c(c2)OCC(C)(C)C3NC(=O)O[C@@H]2CN3CCC2CC3)ccc1F (stereo partly drawn) [Example 171, (S)-quinuclidin-3-yl (7-(3-(dimethylamino)-4-fluorophenyl)-3,3-dimethylchroman-4-yl)carbamate]	0.79	5.23
CC1(C)COc2cc(-c3ccc4c(c3)OCCO4)ccc2C1NC(=O)O[C@@H]1CN2CCC1CC2 (stereo partly drawn) [Example 172, (S)-quinuclidin-3-yl (7-(2,3-dihydrobenzo[b][1,4]dioxin-6-yl)-3,3-dimethylchroman-4-yl)carbamate]	0.37	1.92
CC1(C)COc2cc(-c3cccc4cc[nH]c34)ccc2C1NC(=O)O[C@@H]1CN2CCC1CC2 (stereo partly drawn) [Example 173, (S)-quinuclidin-3-yl (7-(1H-indol-7-yl)-3,3-dimethylchroman-4-yl)carbamate]	1.17	2.95
CC(C)c1ccc(-c2ccc3c(c2)OCC(C)(C)C3NC(=O)O[C@@H]2CN3CCC2CC3)cc1 (stereo partly drawn) [Example 174, (S)-quinuclidin-3-yl (7-(4-isopropylphenyl)-3,3-dimethylchroman-4-yl)carbamate]	0.35	1.37
CC1(C)COc2cc(-c3ccc(F)c(C(F)(F)F)c3)ccc2C1NC(=O)O[C@@H]1CN2CCC1CC2 (stereo partly drawn) [Example 175, (S)-quinuclidin-3-yl (7-(4-fluoro-3-(trifluoromethyl)phenyl)-3,3-dimethylchroman-4-yl)carbamate]	0.71	2.2
